Reference: US20260176265A1 (Cancer Research Technology Limited, priority 2022, published 2026)

Columns and labels:
[1] = molecular target: T1, Phospho-EGFR (Tyr1068) in H1975 C797S cells (Homo sapiens, UniProt P00533, C797S/L858R/T790M); assay: HTRF pEGFR/total EGFR assay in H1975 C797S cells; type: cell-based; details: H1975 C797S cells (CRISPR), compound 3 hours, ratio pEGFR/total EGFR
T1 construct: endogenous in cells; host or cells: H1975 C797S (CRISPR-edited in house from ATCC CRL-5908)
Procedure, shortened: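 Phospho-EGFR (Tyr1068) and total EGFR were measured by HTRF (665 and 620 nm) in lysates of NGS-validated H1975 EGFR C797S cells. Cells were dosed for 3 h in duplicate, 0.1% DMSO final. Read-out is the pEGFR/total EGFR ratio relative to the 0 uM control, as percent.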

[2] = molecular target: T2, Phospho-EGFR (Tyr1068) in H1975 cells (Homo sapiens, UniProt P00533, L858R/T790M); assay: HTRF pEGFR/total EGFR assay in H1975 cells; type: cell-based; details: compound 3 hours, ratio pEGFR/total EGFR
T2 construct: host or cells: H1975
T2 sequence (P00533 25-1210 T790M/L858R): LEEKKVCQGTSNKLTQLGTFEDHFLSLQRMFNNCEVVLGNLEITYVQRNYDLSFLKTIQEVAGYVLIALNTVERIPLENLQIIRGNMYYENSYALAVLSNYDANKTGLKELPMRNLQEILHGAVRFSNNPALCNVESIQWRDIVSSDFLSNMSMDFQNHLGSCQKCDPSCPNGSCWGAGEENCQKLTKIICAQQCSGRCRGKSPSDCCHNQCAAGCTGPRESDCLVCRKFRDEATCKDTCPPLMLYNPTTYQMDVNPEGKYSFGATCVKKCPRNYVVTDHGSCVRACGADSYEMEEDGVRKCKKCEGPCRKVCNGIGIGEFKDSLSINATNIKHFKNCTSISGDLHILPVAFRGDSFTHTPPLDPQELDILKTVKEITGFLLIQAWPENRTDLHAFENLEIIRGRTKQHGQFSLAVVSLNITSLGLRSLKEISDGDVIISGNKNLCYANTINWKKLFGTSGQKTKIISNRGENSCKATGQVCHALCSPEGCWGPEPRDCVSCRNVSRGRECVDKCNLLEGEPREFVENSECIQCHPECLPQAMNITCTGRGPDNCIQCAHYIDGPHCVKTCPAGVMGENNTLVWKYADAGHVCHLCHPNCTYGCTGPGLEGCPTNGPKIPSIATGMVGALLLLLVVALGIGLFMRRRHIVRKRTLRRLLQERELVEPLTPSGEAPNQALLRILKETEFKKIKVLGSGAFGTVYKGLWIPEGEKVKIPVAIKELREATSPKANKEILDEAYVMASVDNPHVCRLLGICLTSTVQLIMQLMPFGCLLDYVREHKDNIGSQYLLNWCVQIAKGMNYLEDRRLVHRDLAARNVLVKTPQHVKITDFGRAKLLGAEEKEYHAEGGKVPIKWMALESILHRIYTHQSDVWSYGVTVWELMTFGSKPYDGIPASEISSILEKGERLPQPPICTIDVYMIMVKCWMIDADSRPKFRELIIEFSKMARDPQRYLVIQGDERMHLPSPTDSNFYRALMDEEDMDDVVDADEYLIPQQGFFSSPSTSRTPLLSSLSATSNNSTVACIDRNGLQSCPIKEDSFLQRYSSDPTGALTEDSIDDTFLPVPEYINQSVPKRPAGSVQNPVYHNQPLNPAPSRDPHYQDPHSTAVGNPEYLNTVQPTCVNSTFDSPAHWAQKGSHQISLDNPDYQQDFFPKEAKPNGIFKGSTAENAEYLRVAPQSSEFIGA
Procedure, shortened: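 H1975 cells (EGFR L858R/T790M) adhered 24 h, then compound-treated for 3 h in duplicate, 0.1% DMSO final. Lysates read by HTRF at 665/620 nm for phospho-Tyr1068 and total EGFR. Value is pEGFR/total EGFR ratio as % of 0 uM control.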

[3] = molecular target: CtermHisTag-mEGFR Triple Mutant - C797S, L858R, T790M (Homo sapiens, UniProt P00533, C797S/L858R/T790M); assay: TR-FRET probe displacement assay, EGFR triple mutant; type: binding; details: T790M 1.25 nM, probe 100 nM, 30 mins room temperature
Procedure, shortened: (§1)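 Probe displacement from His-tagged wild-type or triple-mutant EGFR measured by TR-FRET (excitation 337 nm, emission 490/520 nm). Compounds spanned final concentrations from 3 to 100000 nM over ten points; technical replicates, repeated twice biologically.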

[4] = molecular target: T3, Phospho-EGFR (Tyr1068) in A431 cells (Homo sapiens, UniProt P00533); assay: HTRF pEGFR/total EGFR assay in A431 cells (EGF stimulated); type: cell-based; details: compound 2.5 hours then 100 ng/ml EGF 30 mins, ratio pEGFR/total EGFR
T3 construct: endogenous in cells; host or cells: A431
T3 sequence (P00533 25-1210): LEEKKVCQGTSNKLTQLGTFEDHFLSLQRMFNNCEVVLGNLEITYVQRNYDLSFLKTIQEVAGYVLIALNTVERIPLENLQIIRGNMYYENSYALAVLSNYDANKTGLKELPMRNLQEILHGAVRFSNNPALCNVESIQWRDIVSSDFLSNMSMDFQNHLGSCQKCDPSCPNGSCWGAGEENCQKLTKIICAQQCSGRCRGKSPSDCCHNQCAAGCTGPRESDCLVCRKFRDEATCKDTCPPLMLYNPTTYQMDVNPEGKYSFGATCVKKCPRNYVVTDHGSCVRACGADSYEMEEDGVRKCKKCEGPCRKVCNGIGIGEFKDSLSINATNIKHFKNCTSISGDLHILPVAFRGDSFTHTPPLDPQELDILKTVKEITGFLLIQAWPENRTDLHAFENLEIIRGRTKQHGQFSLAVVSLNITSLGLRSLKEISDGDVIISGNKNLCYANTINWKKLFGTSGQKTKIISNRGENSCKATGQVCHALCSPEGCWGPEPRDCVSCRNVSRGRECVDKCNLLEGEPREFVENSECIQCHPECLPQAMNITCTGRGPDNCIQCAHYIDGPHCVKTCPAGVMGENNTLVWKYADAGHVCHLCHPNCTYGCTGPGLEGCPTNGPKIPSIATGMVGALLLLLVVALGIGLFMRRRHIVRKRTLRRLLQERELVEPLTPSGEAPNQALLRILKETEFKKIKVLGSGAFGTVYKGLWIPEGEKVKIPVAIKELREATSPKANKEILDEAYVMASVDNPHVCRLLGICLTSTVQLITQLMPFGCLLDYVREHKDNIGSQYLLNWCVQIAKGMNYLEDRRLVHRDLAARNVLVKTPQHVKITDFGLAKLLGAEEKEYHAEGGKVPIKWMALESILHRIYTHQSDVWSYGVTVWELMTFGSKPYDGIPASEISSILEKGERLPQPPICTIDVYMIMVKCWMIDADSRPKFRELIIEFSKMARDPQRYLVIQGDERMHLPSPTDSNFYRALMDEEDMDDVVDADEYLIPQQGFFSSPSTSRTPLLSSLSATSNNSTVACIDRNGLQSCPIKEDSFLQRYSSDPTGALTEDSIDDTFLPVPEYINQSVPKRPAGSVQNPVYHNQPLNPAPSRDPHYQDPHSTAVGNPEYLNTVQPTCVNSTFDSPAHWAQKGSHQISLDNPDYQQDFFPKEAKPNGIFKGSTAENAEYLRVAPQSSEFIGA
Procedure, shortened: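 HTRF readout (665 and 620 nm) of Tyr1068-phosphorylated versus total EGFR in lysed A431 cells, expressed as ratio relative to 0uM control (%). Compound exposure 2.5 h in duplicate at 0.1% DMSO, with 100 ng/ml EGF added for 30 min.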

[5] = molecular target: CtermHisTag-mEGFR Wild type (Homo sapiens, UniProt P00533); assay: TR-FRET probe displacement assay, EGFR wild type; type: binding; details: EGFR wild type 1.25 nM, probe 100 nM, 30 mins room temperature
CtermHisTag-mEGFR Wild type, sequence (P00533 25-1210): as above
Procedure, shortened: as §1

T1 sequence (P00533 25-1210 T790M/C797S/L858R): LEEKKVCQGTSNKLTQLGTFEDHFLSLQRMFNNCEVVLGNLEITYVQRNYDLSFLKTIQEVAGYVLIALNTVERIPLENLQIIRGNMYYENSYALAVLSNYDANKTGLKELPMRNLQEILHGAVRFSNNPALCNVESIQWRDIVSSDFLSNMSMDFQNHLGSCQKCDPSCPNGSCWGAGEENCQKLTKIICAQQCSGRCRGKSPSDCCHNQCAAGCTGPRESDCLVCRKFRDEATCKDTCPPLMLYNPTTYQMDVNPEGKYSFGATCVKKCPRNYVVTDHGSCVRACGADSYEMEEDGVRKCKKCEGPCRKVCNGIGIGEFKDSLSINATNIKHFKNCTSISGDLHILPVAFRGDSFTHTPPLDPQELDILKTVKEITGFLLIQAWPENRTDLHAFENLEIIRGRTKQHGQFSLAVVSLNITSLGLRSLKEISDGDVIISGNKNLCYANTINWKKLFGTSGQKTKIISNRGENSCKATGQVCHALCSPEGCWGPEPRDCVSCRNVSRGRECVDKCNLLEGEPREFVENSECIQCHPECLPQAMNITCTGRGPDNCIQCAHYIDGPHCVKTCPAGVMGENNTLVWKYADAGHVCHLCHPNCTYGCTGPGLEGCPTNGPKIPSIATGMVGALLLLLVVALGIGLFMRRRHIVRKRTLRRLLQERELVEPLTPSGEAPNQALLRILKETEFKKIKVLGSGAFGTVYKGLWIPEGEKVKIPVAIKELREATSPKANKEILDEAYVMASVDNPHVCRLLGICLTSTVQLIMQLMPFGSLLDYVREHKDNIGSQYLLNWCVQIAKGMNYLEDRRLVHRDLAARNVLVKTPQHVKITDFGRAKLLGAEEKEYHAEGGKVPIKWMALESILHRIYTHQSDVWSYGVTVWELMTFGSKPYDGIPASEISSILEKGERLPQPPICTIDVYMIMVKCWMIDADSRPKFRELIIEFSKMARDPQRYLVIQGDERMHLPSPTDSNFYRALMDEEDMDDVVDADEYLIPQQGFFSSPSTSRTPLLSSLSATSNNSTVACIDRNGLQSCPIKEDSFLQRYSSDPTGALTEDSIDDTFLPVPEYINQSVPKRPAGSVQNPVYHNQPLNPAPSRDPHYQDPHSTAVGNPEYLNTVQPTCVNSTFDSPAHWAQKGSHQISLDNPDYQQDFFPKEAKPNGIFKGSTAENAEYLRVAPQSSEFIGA

For C#Cc1cc(NC(=O)NC2CCCC2)nc2nc(Nc3cccc4c3CN(C)C4)ncc12 [Example 117, 3-Cyclopentyl-1-{5-ethynyl-2-[(2-methyl-1,3-dihydroisoindol-4-yl)amino]pyrido[2,3-d]pyrimidin-7-yl}urea], the IC50 [1] was greater than 3000 nM, the IC50 [2] was greater than 3000 nM and the IC50 [3] was 100 to 1000 nM. It also gave an IC50 [4] greater than 3000 nM and an IC50 [5] of 1000 to 10000 nM.
C#Cc1cc(NC(=O)NC2CCCC2)nc2nc(Nc3ccccc3N3CCCC(CS(C)(=O)=O)C3)ncc12 (stereo not shown) [Example 118, 3-Cyclopentyl-1-[5-ethynyl-2-({2-[3-(methanesulfonylmethyl)piperidin-1-yl]phenyl}amino)pyrido[2,3-d]pyrimidin-7-yl]urea] gave an IC50 [1] greater than 3000 nM, an IC50 [2] greater than 3000 nM and an IC50 [3] of 1000 to 50000 nM. It also gave an IC50 [4] greater than 3000 nM and an IC50 [5] greater than 10000 nM.
C#Cc1cc(NC(=O)NC2CCCC2)nc2nc(Nc3cccc(N(C)[C@H]4C[C@H](CS(C)(=O)=O)C4)c3)ncc12 [Example 122] showed an IC50 [1] of less than 500 nM, an IC50 [2] of less than 500 nM and an IC50 [3] of less than 20 nM. The IC50 [4] was 1000 to 3000 nM and the IC50 [5] was less than 1000 nM.
For C#Cc1cc(N(C)C(=O)N(C)C2CCCC2)nc2nc(Nc3ccc(N4CCN(C)CC4)cc3)ncc12 [Example 123, 3-Cyclopentyl-1-(5-ethynyl-2-{[4-(4-methylpiperazin-1-yl)phenyl]amino}pyrido[2,3-d]pyrimidin-7-yl)-1,3-dimethylurea], the IC50 [1] was greater than 3000 nM, the IC50 [2] was greater than 3000 nM and the IC50 [3] was 1000 to 50000 nM. It also gave an IC50 [4] greater than 3000 nM and an IC50 [5] greater than 10000 nM.
Work on C#Cc1cc(N2C(=O)NCC2C2CCCC2)nc2nc(Nc3ccc(N4CCN(C)CC4)cc3)ncc12 (stereo not shown) [Example 124, 5-Cyclopentyl-1-(5-ethynyl-2-{[4-(4-methylpiperazin-1-yl)phenyl]amino}pyrido[2,3-d]pyrimidin-7-yl)imidazolidin-2-one] yielded an IC50 [1] of less than 500 nM, an IC50 [2] of 500 to 1000 nM and an IC50 [3] of 20 to 100 nM. For the same molecule, the IC50 [4] was greater than 3000 nM and the IC50 [5] was less than 1000 nM.
